The values that follow come from BindingDB's records for doi:10.1021/acs.jmedchem.0c00249 (China Pharmaceutical University, 2020).

Test [1] is described as follows: Inhibition of SHP2 E76K mutant in splenocytes derived from JMML patient assessed as reduction in cell proliferation in presence of GM-CSF.
The nature of test [2]: Inhibition of SHP2 E76K mutant in splenocytes derived from JMML patient assessed as reduction in GM-CSF induced colony formation of myeloid blast cells measured after 14 days.

With `Cc1cc(C)c2[nH]c3nc(SCC(=O)Nc4cccc5ccccc45)nnc3c2c1`, the values for the IC50 in test [1] and in test [2] were 3.09 µM and 7.24 µM, respectively.
